Assay results as given in US20140288071A1, “INHIBITORS OF NOTUM […] AND METHODS OF THEIR USE” (priority 2011, published 2014).

How the values were obtained:
[1] = target: T1, human notum pectinacetyltransferase (Homo sapiens, UniProt Q6P988); experiment: Binding assay (OPTS esterase substrate, fluorimetric); type: biochemical; conditions: OPTS substrate 5 μM
T1 construct: made in house; conditioned medium used
T1 sequence (Q6P988 20-496): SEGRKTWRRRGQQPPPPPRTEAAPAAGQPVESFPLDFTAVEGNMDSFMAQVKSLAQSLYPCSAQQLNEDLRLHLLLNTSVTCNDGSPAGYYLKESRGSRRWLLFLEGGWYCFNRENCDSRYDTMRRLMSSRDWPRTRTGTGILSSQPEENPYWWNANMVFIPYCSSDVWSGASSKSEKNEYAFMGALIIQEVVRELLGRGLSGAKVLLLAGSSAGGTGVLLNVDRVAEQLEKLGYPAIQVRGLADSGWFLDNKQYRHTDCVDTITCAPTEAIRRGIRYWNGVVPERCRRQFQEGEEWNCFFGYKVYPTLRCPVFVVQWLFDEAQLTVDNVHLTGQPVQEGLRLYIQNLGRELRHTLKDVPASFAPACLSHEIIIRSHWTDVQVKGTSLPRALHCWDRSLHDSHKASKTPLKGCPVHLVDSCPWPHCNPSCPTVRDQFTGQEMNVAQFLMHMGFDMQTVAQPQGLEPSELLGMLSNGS
Description: Plasmid containing human notum pectinacetyltransferase in pcDNA3.1(+) vector was transfected into HEK293 cells and clones were selecting by growing in presence of 400 ug/mL of G418. Condition media from these cells was used for the assay.

[2] = target: T1, human notum pectinacetyltransferase; experiment: Reporter assay (CellSensor LEF/TCF-bla FreeStyle 293F cells, Wnt3a and notum conditioned media); type: cell-based
Description: Plasmid containing human notum pectinacetyltransferase in pcDNA3.1(+) vector was transfected into HEK293 cells and clones were selecting by growing in presence of 400 ug/mL of G418. […] L cells overexpressing and secreting Wnt3a into the conditioned media were purchased from ATCC.
The assay protocol was as follows. […] The cell growth medium consisted of DMEM with 10% Dialyzed FBS, 5 μg/ml Blasticidin (Invitrogen, R210-01), 0.1 mM NEAA, 25 mM HEPES and 1×GPS. Cells were then trypsinized by first rinsing with PBS, followed by addition of 5 mL of trypsin and incubation of plates at room temperature for two minutes. A total of 10 mL of assay media (Opti-MEM, plus 0.5% dialyzed FBS, 0.1 mM NEAA, 1 mM sodium pyruvate, 10 mM HEPES, 1×GPS) was then added per 15 cm plate. Cells were counted and suspended at 0.75 million cells per mL. […] After incubation of cells at 37° C. for 3 hours, 10 μL of 30 mM LiCl in assay medium was added per well, followed by incubation at 37° C. for another 3 hours. […] Ten μL of the Wnt3a/notum pentinacetyltransferase mixture was then transferred from Greiner plates to each well of the 384-well plates containing the CellSensor cells. After incubation of cells overnight at 37° C., reactions were developed by addition of […] of 1×CCF4 (Invitrogen, Catalogue number K1085) to each well, covering the entire 384-well plate, and gentle rocking in the dark at room temperature for 3 hours.

Compound | IC50 [1] | EC50 [2]
Cc1csc2ncnc(SCC(=O)O)c12 [2-((5-methylthieno[2,3-d]pyrimidin-4-yl)thio)acetic acid] | < 100 nM | –
CCc1sc2ncnc(SCC(=O)O)c2c1Cl [2-((5-chloro-6-ethylthieno[2,3-d]pyrimidin-4-yl)thio)acetic acid] | < 25 nM | < 1000 nM
COC(=O)CSc1ncnc2c(C3CC3)c(Cl)sc12 [methyl 2-((6-chloro-7-cyclopropylthieno[3,2-d]pyrimidin-4-yl)thio)acetate] | < 25 nM | –
Cc1sc2ncnc(SCC(=O)O)c2c1C1CC1 [2-((5-cyclopropyl-6-methylthieno[2,3-d]pyrimidin-4-yl)thio)acetic acid] | < 25 nM | < 5000 nM
O=C(O)CSc1ncnc2c(C3CC3)c(C(F)(F)F)sc12 [2-(7-cyclopropyl-6-(trifluoromethyl)thieno[3,2-d]pyrimidin-4-yl)thio)acetic acid] | < 25 nM | < 1000 nM
Cc1sc2ncnc(SCC(=O)NOC3CCCCO3)c2c1C (centres unmarked) [2-((5,6-dimethylthieno[2,3-d]pyrimidin-4-yl)thio)-N-((tetrahydro-2H-pyran-2-yl)oxy)acetamide] | < 25 nM | < 1000 nM
CCc1sc2ncnc(SCC(=O)O)c2c1C [2-((6-ethyl-5-methylthieno[2,3-d]pyrimidin-4-yl)thio)acetic acid] | < 25 nM | –
Cc1sc2ncnc(SCC(=O)N3CCC(C(N)=O)CC3)c2c1C [1-(2-((5,6-dimethylthieno[2,3-d]pyrimidin-4-yl)thio)acetyl)piperidine-4-carboxamide] | < 250 nM | –
Cc1sc2ncnc(SCC(=O)NCc3ccncc3)c2c1Cl [2-((5-chloro-6-methylthieno[2,3-d]pyrimidin-4-yl)thio)-N-(pyridin-4-ylmethyl)acetamide] | < 25 nM | –
Cc1sc2ncnc(SCC(=O)NO)c2c1C [2-((5,6-dimethylthieno[2,3-d]pyrimidin-4-yl)thio)-N-hydroxyacetamide] | < 25 nM | < 1000 nM
Cc1sc2c(SCC(=O)O)ncnc2c1C1CC1 [2-((7-cyclopropyl-6-methylthieno[3,2-d]pyrimidin-4-yl)thio)acetic acid] | < 25 nM | < 1000 nM
CCNC(=O)CSc1ncnc2sc(C)c(Cl)c12 [2-((5-chloro-6-methylthieno[2,3-d]pyrimidin-4-yl)thio)-N-ethylacetamide] | < 25 nM | < 1000 nM
Cc1sc2ncnc(SCC(=O)NS(C)(=O)=O)c2c1Cl [2-((5-chloro-6-methylthieno[2,3-d]pyrimidin-4-yl)thio)-N-(methylsulfonyl)acetamide] | – | < 1000 nM
2-(7-cyclopropyl-6-(trifluoromethyl)thieno[3,2-d]pyrimidin-4-yl)thio)acetate | < 25 nM | < 1000 nM
Cc1sc2ncnc(SCC(N)=O)c2c1C [2-((5,6-dimethylthieno[2,3-d]pyrimidin-4-yl)thio)acetamide] | < 25 nM | < 1000 nM
Cc1sc2c(SCC(=O)O)ncnc2c1C [2-((6,7-dimethylthieno[3,2-d]pyrimidin-4-yl)thio)acetic acid] | < 25 nM | –
COc1cc2c(cc1OC)CN(C(=O)CSc1ncnc3sc(C)c(C)c13)C2 [1-(5,6-dimethoxyisoindolin-2-yl)-2-((5,6-dimethylthieno[2,3-d]pyrimidin-4-yl)thio)ethanone] | < 25 nM | –
Cc1sc2ncnc(SCC(=O)NCc3ccco3)c2c1C [2-((5,6-dimethylthieno[2,3-d]pyrimidin-4-yl)thio)-N-(furan-2-ylmethyl)acetamide] | < 25 nM | –
Cc1c(C2CC2)sc2ncnc(SCC(=O)O)c12 [2-((6-cyclopropyl-5-methylthieno[2,3-d]pyrimidin-4-yl)thio)acetic acid] | – | < 5000 nM
Cc1c(Br)sc2c(SCC(=O)O)ncnc12 [2-((6-bromo-7-methylthieno[3,2-d]pyrimidin-4-yl)thio)acetic acid] | < 25 nM | –
Cc1sc2ccnc(SCC(=O)O)c2c1Cl [2-((3-chloro-2-methylthieno[3,2-c]pyridin-4-yl)thio)acetic acid] | – | < 5000 nM

Compound | IC50 [1] | EC50 [2]
Cc1sc2ncnc(SCC(=O)N(C)CC(=O)O)c2c1Cl [2-(2-((5-chloro-6-methylthieno[2,3-d]pyrimidin-4-yl)thio)-N-methylacetamido)acetic acid] | – | < 1000 nM
Cc1c(Cl)sc2c(SCC(=O)NCc3cccs3)ncnc12 [2-((6-chloro-7-methylthieno[3,2-d]pyrimidin-4-yl)thio)-N-(thiophen-2-ylmethyl)acetamide] | – | < 1000 nM
CCCNC(=O)CSc1ncnc2sc(C)c(Cl)c12 [2-((5-chloro-6-methylthieno[2,3-d]pyrimidin-4-yl)thio)-N-propylacetamide] | < 25 nM | –
Cc1sc2ncnc(SCC(=O)Nc3ccccc3F)c2c1C [2-((5,6-dimethylthieno[2,3-d]pyrimidin-4-yl)thio)-N-(2-fluorophenyl)acetamide] | < 25 nM | –
Cc1sc2ncnc(SCC(=O)NS(=O)(=O)C3CC3)c2c1C [N-(cyclopropylsulfonyl)-2-((5,6-dimethylthieno[2,3-d]pyrimidin-4-yl)thio)acetamide] | < 25 nM | –
Cc1sc2ncnc(SCC(=O)NCCc3c[nH]cn3)c2c1Cl [N-(2-(1H-imidazol-4-yl)ethyl)-2-((5-chloro-6-methylthieno[2,3-d]pyrimidin-4-yl)thio)acetamide] | < 25 nM | –
Cc1sc2ncnc(SCC(=O)NC(C)CO)c2c1Cl (centres unmarked) [2-((5-chloro-6-methylthieno[2,3-d]pyrimidin-4-yl)thio)-N-(1-hydroxypropan-2-yl)acetamide] | – | < 5000 nM
Cc1sc2ncnc(SCC(=O)NCc3cccs3)c2c1Cl [2-((5-chloro-6-methylthieno[2,3-d]pyrimidin-4-yl)thio)-N-(thiophen-2-ylmethyl)acetamide] | < 25 nM | –
CCS(=O)(=O)NC(=O)CSc1ncnc2sc(C)c(C)c12 [2-((5,6-dimethylthieno[2,3-d]pyrimidin-4-yl)thio)-N-(ethylsulfonyl)acetamide] | < 25 nM | –
Cc1c(C(C)C)sc2ncnc(SCC(=O)O)c12 [2-((6-isopropyl-5-methylthieno[2,3-d]pyrimidin-4-yl)thio)acetic acid] | < 50 nM | –
Cc1c(Cl)sc2ncnc(SCC(=O)O)c12 [2-((6-chloro-5-methylthieno[2,3-d]pyrimidin-4-yl)thio)acetic acid] | < 25 nM | –
COC(=O)CSc1ncnc2sc(C)c(C3CC3)c12 [methyl 2-((5-cyclopropyl-6-methylthieno[2,3-d]pyrimidin-4-yl)thio)acetate] | < 25 nM | –
COC(=O)CSc1ncnc2c(C)c(C#N)sc12 [methyl 2-((6-cyano-7-methylthieno[3,2-d]pyrimidin-4-yl)thio)acetate] | – | < 1000 nM
Cc1csc(CCNC(=O)CSc2ncnc3sc(C)c(Cl)c23)n1 [2-((5-chloro-6-methylthieno[2,3-d]pyrimidin-4-yl)thio)-N-(2-(4-methylthiazol-2-yl)ethyl)acetamide] | < 25 nM | –
Cc1sc2ncnc(SCC(=O)NCc3cccs3)c2c1C [2-((5,6-dimethylthieno[2,3-d]pyrimidin-4-yl)thio)-N-(thiophen-2-ylmethyl)acetamide] | < 100 nM | –
Cc1c(C#N)sc2c(SCC(=O)O)ncnc12 [2-((6-cyano-7-methylthieno[3,2-d]pyrimidin-4-yl)thio)acetic acid] | – | < 1000 nM
Cc1c(Cl)sc2c(SCC(=O)NCCN3CCCCC3)ncnc12 [2-((6-chloro-7-methylthieno[3,2-d]pyrimidin-4-yl)thio)-N-(2-(piperidin-1-yl)ethyl)acetamide] | – | < 1000 nM
Cc1ccc(S(=O)(=O)NC(=O)CSc2ncnc3sc(C)c(C)c23)nc1 [2-((5,6-dimethylthieno[2,3-d]pyrimidin-4-yl)thio)-N-((5-methylpyridin-2-yl)sulfonyl)acetamide] | < 100 nM | –
COC(=O)CSc1ncnc2sc(C3CC3)c(C)c12 [methyl 2-((6-cyclopropyl-5-methylthieno[2,3-d]pyrimidin-4-yl)thio)acetate] | < 25 nM | –
Cc1sc2ncnc(SCC(=O)Nc3n[nH]c4cccc(Cl)c34)c2c1C [N-(4-chloro-1H-indazol-3-yl)-2-((5,6-dimethylthieno[2,3-d]pyrimidin-4-yl)thio)acetamide] | < 25 nM | –
